Measured values published in US8309577B2, “Quinuclidine compounds as α-7 nicotinic acetylcholine receptor ligands” (Bristol-Myers Squibb Company, priority 2008, dated 2012).

molecular target: T1, α-7 nicotinic acetylcholine receptor channel expressed in HEK 293 cells (Rattus norvegicus, UniProt Q05941); experiment: Ca2+-sensitive fluorescence-based FLIPR assay, α7 nicotinic ACh receptor channel function (agonist); assay type: cell-based; settings: not given
T1 construct: expressed in transfected cells
T1 sequence (Q05941 23-502): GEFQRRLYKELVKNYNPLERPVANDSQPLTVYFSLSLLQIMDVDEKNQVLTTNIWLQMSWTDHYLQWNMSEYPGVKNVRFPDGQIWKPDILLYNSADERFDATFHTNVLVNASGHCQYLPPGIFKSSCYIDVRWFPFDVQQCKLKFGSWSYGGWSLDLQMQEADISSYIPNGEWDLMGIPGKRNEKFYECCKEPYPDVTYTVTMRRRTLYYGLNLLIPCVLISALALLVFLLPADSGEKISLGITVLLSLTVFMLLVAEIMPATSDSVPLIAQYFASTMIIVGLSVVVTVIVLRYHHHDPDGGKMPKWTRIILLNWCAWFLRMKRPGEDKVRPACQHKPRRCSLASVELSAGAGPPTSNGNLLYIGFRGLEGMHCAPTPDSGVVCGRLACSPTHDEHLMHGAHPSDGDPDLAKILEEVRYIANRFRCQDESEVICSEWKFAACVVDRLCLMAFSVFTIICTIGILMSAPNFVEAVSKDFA
Method in brief: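 Potency and efficacy derived from kinetic FLIPR Ca²⁺-flux fluorescence, recorded 3 min after compound addition in Hanks buffer following a 10 s baseline.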

| Compound | EC50 |
| --- | --- |
| Cc1nc2cc(NC3=NCC4(CN5CCC4CC5)O3)ccc2s1 (centres unmarked) [Example 63] | 2600 nM |
| c1ccc2ncc(NC3=NCC4(CN5CCC4CC5)O3)cc2c1 (centres unmarked) [Example 73] | 7550 nM |

same assay, conditions: FLIPR α7 (EC50, nM), Table 1; HEK 293 cells, agonist Ca2+ flux

| Compound | EC50 |
| --- | --- |
| Clc1ccc2nc(NC3=NCC4(CN5CCC4CC5)O3)nn2c1 (centres unmarked) [Example 66] | 360 nM |
| Fc1ccc2nc(NC3=NCC4(CN5CCC4CC5)O3)[nH]c2c1 (centres unmarked) [Example 77] | 355 nM |
| FC(F)(F)c1ccc2nc(NC3=NCC4(CN5CCC4CC5)O3)nn2c1 (centres unmarked) [Example 83] | 240 nM |
| CC(=O)Nc1ccc2nc(NC3=NCC4(CN5CCC4CC5)O3)sc2c1 (centres unmarked) [Example 90] | 130 nM |
| Cc1cc(Cl)c2nc(NC3=NCC4(CN5CCC4CC5)O3)sc2c1 (centres unmarked) [Example 103] | 280 nM |
| CC(C)(C)c1csc(NC2=NCC3(CN4CCC3CC4)O2)n1 (centres unmarked) [Example 110] | 450 nM |
| COc1ccn2nc(NC3=NC[C@@]4(CN5CCC4CC5)O3)nc2c1 [Example 125] | 17 nM |
| c1ccc2nc(NC3=NC[C@@]4(CN5CCC4CC5)O3)ccc2c1 [Example 139] | 16 nM |
| Fc1cccc2[nH]nc(NC3=NC[C@@]4(CN5CCC4CC5)O3)c12 [Example 158] | 135 nM |
| c1ccc2c(NC3=NC[C@@]4(CN5CCC4CC5)O3)n[nH]c2c1 [Example 165] | 13 nM |
| COc1ccc(-c2ccnc(NC3=NC[C@@]4(CN5CCC4CC5)O3)n2)cc1 [Example 166] | 11 nM |
| Cc1cc(Cl)cc2sc(NC3=NC[C@@]4(CN5CCC4CC5)O3)nc12 [Example 174] | 245 nM |
| COc1nc(NC2=NC[C@@]3(CN4CCC3CC4)O2)ncc1Br [Example 178] | 17 nM |

same assay, conditions: FLIPR α7 activity rating (EC50, nM), Table 1; HEK 293 cells, agonist Ca2+ flux

| Compound | EC50 |
| --- | --- |
| Cc1nc2cc(NC3=NCC4(CN5CCC4CC5)O3)ccc2s1 (centres unmarked) [Example 63] | 1000 to 100000 nM |
| Clc1ccc2nc(NC3=NCC4(CN5CCC4CC5)O3)nn2c1 (centres unmarked) [Example 66] | 100 to 1000 nM |
| Cc1noc(C)c1NC1=NCC2(CN3CCC2CC3)O1 (centres unmarked) [Example 67] | 1000 to 100000 nM |
| Cc1cnn(C)c1NC1=NCC2(CN3CCC2CC3)O1 (centres unmarked) [Example 68] | 1000 to 100000 nM |
| N#Cc1ccc2nc(NC3=NCC4(CN5CCC4CC5)O3)sc2c1 (centres unmarked) [Example 70] | 100 to 1000 nM |
| c1nc2cc(NC3=NCC4(CN5CCC4CC5)O3)ccc2s1 (centres unmarked) [Example 71] | 1000 to 100000 nM |
| c1nc2ccc(NC3=NCC4(CN5CCC4CC5)O3)cc2s1 (centres unmarked) [Example 72] | 1000 to 100000 nM |
| c1ccc2ncc(NC3=NCC4(CN5CCC4CC5)O3)cc2c1 (centres unmarked) [Example 73] | 1000 to 100000 nM |
| Cc1ccc2nc(NC3=NCC4(CN5CCC4CC5)O3)nn2c1 (centres unmarked) [Example 74] | < 100 nM |
| c1cnc2cc(NC3=NCC4(CN5CCC4CC5)O3)ccc2n1 (centres unmarked) [Example 75] | 1000 to 100000 nM |
| COc1ccc2nc(NC3=NCC4(CN5CCC4CC5)O3)[nH]c2c1 (centres unmarked) [Example 76] | 100 to 1000 nM |
| Fc1ccc2nc(NC3=NCC4(CN5CCC4CC5)O3)[nH]c2c1 (centres unmarked) [Example 77] | 100 to 1000 nM |
| c1cc2cn[nH]c2cc1NC1=NCC2(CN3CCC2CC3)O1 (centres unmarked) [Example 78] | 1000 to 100000 nM |
| FC(F)(F)c1ccc2nc(NC3=NCC4(CN5CCC4CC5)O3)nn2c1 (centres unmarked) [Example 83] | 100 to 1000 nM |
| c1cnc2ccc(NC3=NCC4(CN5CCC4CC5)O3)cc2c1 (centres unmarked) [Example 85] | 1000 to 100000 nM |
| O=C1Cc2cc(NC3=NCC4(CN5CCC4CC5)O3)ccc2N1 (centres unmarked) [Example 86] | 1000 to 100000 nM |
| c1ccn2nc(NC3=NCC4(CN5CCC4CC5)O3)nc2c1 (centres unmarked) [Example 87] | < 100 nM |
| c1ccc(-c2csc(NC3=NCC4(CN5CCC4CC5)O3)n2)nc1 (centres unmarked) [Example 88] | 100 to 1000 nM |
| Cc1cc(C)c2nc(NC3=NCC4(CN5CCC4CC5)O3)sc2c1 (centres unmarked) [Example 89] | < 100 nM |
| CC(=O)Nc1ccc2nc(NC3=NCC4(CN5CCC4CC5)O3)sc2c1 (centres unmarked) [Example 90] | 100 to 1000 nM |
| CCc1ccc2nc(NC3=NCC4(CN5CCC4CC5)O3)sc2c1 (centres unmarked) [Example 91] | 100 to 1000 nM |
| Cc1cnc(NC2=NCC3(CN4CCC3CC4)O2)s1 (centres unmarked) [Example 92] | < 100 nM |
| Cc1ccn2nc(NC3=NCC4(CN5CCC4CC5)O3)nc2c1 (centres unmarked) [Example 94] | < 100 nM |
| Cn1c(-c2ccccc2)cnc1NC1=NCC2(CN3CCC2CC3)O1 (centres unmarked) [Example 96] | 1000 to 100000 nM |
| Cc1cccn2nc(NC3=NCC4(CN5CCC4CC5)O3)nc12 (centres unmarked) [Example 97] | 100 to 1000 nM |
| Cc1nc(NC2=NCC3(CN4CCC3CC4)O2)sc1C(=O)N(C)C (centres unmarked) [Example 98] | 1000 to 100000 nM |

| Compound | EC50 |
| --- | --- |
| Cc1ccc(C)c2sc(NC3=NCC4(CN5CCC4CC5)O3)nc12 (centres unmarked) [Example 102] | < 100 nM |
| Cc1cc(Cl)c2nc(NC3=NCC4(CN5CCC4CC5)O3)sc2c1 (centres unmarked) [Example 103] | 100 to 1000 nM |
| FC(F)Oc1ccc2nc(NC3=NCC4(CN5CCC4CC5)O3)sc2c1 (centres unmarked) [Example 104] | 100 to 1000 nM |
| c1ccc(Cc2cnc(NC3=NCC4(CN5CCC4CC5)O3)s2)cc1 (centres unmarked) [Example 105] | 100 to 1000 nM |
| Brc1cnc(NC2=NCC3(CN4CCC3CC4)O2)cn1 (centres unmarked) [Example 107] | 100 to 1000 nM |
| Cc1csc(NC2=NCC3(CN4CCC3CC4)O2)n1 (centres unmarked) [Example 109] | 100 to 1000 nM |
| CC(C)(C)c1csc(NC2=NCC3(CN4CCC3CC4)O2)n1 (centres unmarked) [Example 110] | 100 to 1000 nM |
| COc1ccc(C)c2nc(NC3=NCC4(CN5CCC4CC5)O3)sc12 (centres unmarked) [Example 112] | < 100 nM |
| c1ccc2c(NC3=NCC4(CN5CCC4CC5)O3)n[nH]c2c1 (centres unmarked) [Example 113] | < 100 nM |
| COc1ccn2nc(NC3=NC[C@@]4(CN5CCC4CC5)O3)nc2c1 [Example 125] | < 100 nM |
| Clc1cncc(NC2=NC[C@@]3(CN4CCC3CC4)O2)n1 [Example 127] | 1000 to 100000 nM |
| COc1ccc(-c2nc(NC3=NC[C@@]4(CN5CCC4CC5)O3)sc2C)cc1 [Example 129] | 100 to 1000 nM |
| COc1nc(Br)cnc1NC1=NC[C@@]2(CN3CCC2CC3)O1 [Example 130] | 100 to 1000 nM |
| Clc1cccc2[nH]nc(NC3=NC[C@@]4(CN5CCC4CC5)O3)c12 [Example 132] | 100 to 1000 nM |
| Brc1ccc2c(NC3=NC[C@@]4(CN5CCC4CC5)O3)n[nH]c2c1 [Example 133] | < 100 nM |
| Clc1ccc2c(NC3=NC[C@@]4(CN5CCC4CC5)O3)n[nH]c2c1 [Example 134] | < 100 nM |
| COc1ccc2c(NC3=NC[C@@]4(CN5CCC4CC5)O3)n[nH]c2c1 [Example 135] | < 100 nM |
| Brc1cnc(NC2=NC[C@@]3(CN4CCC3CC4)O2)cn1 [Example 136] | < 100 nM |
| c1cncc(-c2ncc(NC3=NC[C@@]4(CN5CCC4CC5)O3)cn2)c1 [Example 138] | 1000 to 100000 nM |
| c1ccc2nc(NC3=NC[C@@]4(CN5CCC4CC5)O3)ccc2c1 [Example 139] | < 100 nM |
| Fc1ccc2nc(NC3=NC[C@@]4(CN5CCC4CC5)O3)ccc2c1 [Example 140] | 100 to 1000 nM |
| c1csc(-c2cc(NC3=NC[C@@]4(CN5CCC4CC5)O3)n[nH]2)c1 [Example 143] | 100 to 1000 nM |
| Cc1cc(C)c2c(NC3=NC[C@@]4(CN5CCC4CC5)O3)nsc2n1 [Example 145] | 1000 to 100000 nM |
| c1ccc2c(NC3=NC[C@@]4(CN5CCC4CC5)O3)nccc2c1 [Example 146] | 100 to 1000 nM |
| c1ccc2c(NC3=NC[C@@]4(CN5CCC4CC5)O3)ncnc2c1 [Example 147] | 100 to 1000 nM |
| N#Cc1cnc(NC2=NC[C@@]3(CN4CCC3CC4)O2)cn1 [Example 148] | 1000 to 100000 nM |

| Compound | EC50 |
| --- | --- |
| COc1cc(NC2=NC[C@@]3(CN4CCC3CC4)O2)nc(OC)n1 [Example 150] | 100 to 1000 nM |
| COc1ccc(-c2cnc(NC3=NC[C@@]4(CN5CCC4CC5)O3)nc2)cc1 [Example 151] | 100 to 1000 nM |
| c1ccc2c(c1)CCc1cnc(NC3=NC[C@@]4(CN5CCC4CC5)O3)nc1-2 [Example 153] | 100 to 1000 nM |
| Brc1cc(NC2=NC[C@@]3(CN4CCC3CC4)O2)ccn1 [Example 154] | 1000 to 100000 nM |
| Brc1cccc(NC2=NC[C@@]3(CN4CCC3CC4)O2)n1 [Example 155] | 100 to 1000 nM |
| Cc1ccc2nc(NC3=NC[C@@]4(CN5CCC4CC5)O3)ccc2c1 [Example 157] | 100 to 1000 nM |
| Fc1cccc2[nH]nc(NC3=NC[C@@]4(CN5CCC4CC5)O3)c12 [Example 158] | 100 to 1000 nM |
| Fc1ccc2[nH]nc(NC3=NC[C@@]4(CN5CCC4CC5)O3)c2c1 [Example 159] | < 100 nM |
| c1cc(NC2=NC[C@@]3(CN4CCC3CC4)O2)cnn1 [Example 160] | 1000 to 100000 nM |
| Cc1oc2ncnc(NC3=NC[C@@]4(CN5CCC4CC5)O3)c2c1C [Example 161] | 1000 to 100000 nM |
| COc1ccc(-c2cc(NC3=NC[C@@]4(CN5CCC4CC5)O3)n[nH]2)cc1 [Example 162] | 1000 to 100000 nM |
| FC(F)(F)c1ccc2[nH]nc(NC3=NC[C@@]4(CN5CCC4CC5)O3)c2c1 [Example 163] | < 100 nM |
| FC(F)(F)c1ccc2c(NC3=NC[C@@]4(CN5CCC4CC5)O3)n[nH]c2c1 [Example 164] | 100 to 1000 nM |
| c1ccc2c(NC3=NC[C@@]4(CN5CCC4CC5)O3)n[nH]c2c1 [Example 165] | < 100 nM |
| COc1ccc(-c2ccnc(NC3=NC[C@@]4(CN5CCC4CC5)O3)n2)cc1 [Example 166] | < 100 nM |
| Cc1sc2ncnc(NC3=NC[C@@]4(CN5CCC4CC5)O3)c2c1C [Example 167] | 1000 to 100000 nM |
| Brc1ccc2nc(NC3=NC[C@@]4(CN5CCC4CC5)O3)ncc2c1 [Example 168] | < 100 nM |
| Cc1nc(NC2=NC[C@@]3(CN4CCC3CC4)O2)nc(C)c1Br [Example 171] | < 100 nM |
| COc1cc(C)nc(NC2=NC[C@@]3(CN4CCC3CC4)O2)n1 [Example 172] | 100 to 1000 nM |
| COc1cccc(-c2csc(NC3=NC[C@@]4(CN5CCC4CC5)O3)n2)c1 [Example 173] | 100 to 1000 nM |
| Cc1cc(Cl)cc2sc(NC3=NC[C@@]4(CN5CCC4CC5)O3)nc12 [Example 174] | 100 to 1000 nM |
| Cc1cc(C)nc(NC2=NC[C@@]3(CN4CCC3CC4)O2)n1 [Example 176] | 100 to 1000 nM |
| c1ccc2c(c1)CCc1cnc(NC3=NC[C@@]4(CN5CCC4CC5)O3)nc1-2 [Example 177] | < 100 nM |
| COc1nc(NC2=NC[C@@]3(CN4CCC3CC4)O2)ncc1Br [Example 178] | < 100 nM |
| COc1ccc2nc(NC3=NC[C@@]4(CN5CCC4CC5)O3)c(C)cc2c1 [Example 179] | 100 to 1000 nM |
